Patent US20230218577A1, “USE OF HEAT SHOCK PROTEIN INHIBITORS FOR THE TREATMENT OF NEURODEVELOPMENTAL DISORDERS” (The Children's Medical Center Corporation, priority 2020, published 2023)

Assays:
[1] = tested on: Hsp90 (panel of human cancer cell lines); conditions: read-out: mean IC50 against Hsp90, Kelland et al. 1999; cited from earlier work
[2] = tested on: pS6, IGF-IRβ, Akt, PRAS40, Raptor in Tsc2-sh neurons; test: Western blot of PI3K/Akt/mTORC1 signaling components in Tsc2-sh neurons; assay type: cell-based, rat
Description: Hsp90 is a molecular chaperone that protects its client proteins from degradation, and many of its substrates are oncogenic proteins (Neckers and Workman, Hsp90 molecular chaperone inhibitors: are we there yet?; Clin Cancer Res 18, 64-76 (2012)). Among these, insulin-growth factor-1 Receptor β (IGF-IRβ), Akt, and Raptor are components of the PI3K/mTOR pathway that have been identified as Hsp90 substrates in non-neuronal cells (Basso et al., Akt forms an intracellular complex with heat shock protein 90 (Hsp90) and Cdc37 and is destabilized by inhibitors of Hsp90 function; J Biol Chem 277, 39858-39866 (2002); Ohji et al., Suppression of the mTOR-raptor signaling pathway by the inhibitor of heat shock protein 90 geldanamycin; J Biochem 139, 129-135 (2006)). To test whether Hsp90 affects mTORC1 activity through regulation of IGF-IRβ, Akt, or Raptor in neurons, the expression of these potential client proteins were examined in Tsc2-knockdown neurons treated with vehicle or with a 7-point dose-response curve at a three-fold dilution of 17-AGG (assay endpoint DIV20).
To investigate whether Hsp90 could function as a chaperone of IGF-IRβ in neurons, wild-type neurons were treated with 17-AGG and then proteasomal degradation was inhibited using bortezomib (BTZ). As expected, Hsp90 inhibition led to reduced IGF-IRβ levels, and this reduction was prevented with BTZ. […] Without wishing to be bound by theory, it is likely that Hsp90 protects IGF-IRβ against proteasomal degradation. To test whether IGF-IRβ protein stability and signaling may represent a potential mechanism by which Hsp90 inhibition reduces mTORC1 activity, IGF-IRβ activation was assessed by autophosphorylation at Tyr1135/1136. Consistent with mTOR-dependent negative feedback on the RTK/Akt pathway (Zhang et al., S6K1 regulates GSK3 under conditions of mTOR-dependent feedback inhibition of Akt; Molecular cell 24, 185-197 (2006)), IGF-IRβ phosphorylation was reduced in the vehicle-treated Tsc2-sh neurons compared to controls (FIGS. 3G, J). […] (FIGS. 3G, J).
Hippocampi and cortexes from 18-day-old rat embryos (Charles River CD1) were isolated under the microscope and collected in Hank's Balanced Salt Solution containing 10 mM MgCl2, 1 mM kynurenic acid, 10 mM HEPES and penicillin/streptomycin. After 5 min dissociation at 37° C. in 30 U/ml of papain, neurons were mechanically triturated and plated in Neurobasal (NB) medium containing B27 supplement, 2 mM L-glutamine, penicillin/streptomycin and primocin (NB/B27). Biochemical analysis was performed on cortical cultures plated at 1×10^6 cells/well onto six-well plates. Immunofluorescent analysis was performed on hippocampal cultures plated at 20×10^3 cells/well onto 96-well plates. All plates were coated with 20 μg/ml poly-D-lysine (PDL).
Protein extracts were lysed in 1×SDS (22 mM Tris-HCl pH 6.8, 4% Glycerol, 0.8% SDS, 1.6% β-mercaptoethanol, bromphenol blue) sample buffer, heated to 95° C. for 5 min and stored frozen. Before being subjected to discontinuous gel electrophoresis, equal amounts of all protein lysates were verified by Coomassie gel staining. For immunoblotting, equal amounts of protein lysates were subjected to SDS-PAGE, transferred to Immobilon-P Millipore and incubated in LI-COR blocking solution at RT for 2 hrs. Primary and secondary antibodies were diluted in LI-COR blocking solution to the appropriate concentrations. LI-COR IRDye secondary antibodies were used. All images were acquired using the LI-COR Odyssey Classic imager and associated Image Studio Lite analysis software (version 5.2.5). Quantification of protein expression was performed by densitometry scans of immunoblots using LI-COR Odyssey imaging system.
Western blot quantifications were performed by protein normalization using GAPDH as loading control. Level of phosphorylated proteins was expressed as the ratio of phosphorylated/total level after GAPDH normalization. […]

[3] = Tsc2-sh neurons, 7-point dose-response, assay endpoint DIV20
[4] = Tsc2-sh neurons, 17-AGG dose of 4 μM, assay endpoint DIV20
[5] = Tsc2-sh neurons, dose curve 24 hrs between DIV19-20

## C=CCNC1=C2C[C@@H](C)C[C@H](OC)[C@H](O)[C@@H](C)/C=C(\C)[C@H](OC(N)=O)[C@@H](OC)C=C/C=C(\C)C(=O)NC(=CC1=O)C2=O [17-AGG, 3 S,5S,6R,7S,8E,10R,11S,12E,14E)-21-(allylamino)-6-hydroxy-5,11-dimethoxy-3,7,9,15-tetramethyl-16,20,22-trioxo-17-azabicyclo[16.3.1]docosa-8,12,14,18,21-pentaen-10-yl] carbamate]
[1]
  IC50: […]
[2]; [3]
  Akt levels: no effect
  Raptor levels: no effect
[2]; [4]
  pS6 phosphorylation: significantly reduced
  total IGF-IRβ protein level: significantly reduced
[2]; [5]
  phosphorylation of Akt: reduced
  phosphorylation of PRAS40: reduced
[2]; Tsc2-sh neurons, dose curve, DIV19-20
  phosphorylation of IGF-IRβ receptor (Tyr1135/1136): further reduced
[2]; Tsc2 knockdown cultures at DIV13, four days of 17-AGG 5-450 nM
  mTORC1 activation: without any effect
